In patent US8058295B2, “Cystic fibrosis transmembrane conductance regulator protein inhibitors and uses thereof” (The Regents of the University of California, priority 2002, dated 2011):
Like-named read-outs stand apart in the source and are kept apart here.

Tests used:
[1] = biological target: T1, wildtype CFTR (Homo sapiens, UniProt P13569); test: Short-circuit current in primary culture of human bronchial epithelial cells; assay type: cell-based; set-up: cells that natively express wildtype CFTR; endogenous in cells; host or cells: primary human bronchial epithelial cells
[2] = biological target: T1, wildtype CFTR; test: YFP fluorescence assay of CFTR-mediated I^− transport in FRT cells; assay type: cell-based; set-up: expressed in transfected cells; host or cells: Fischer rat thyroid (FRT) cells
[3] = Tissue distribution and elimination in mice after intravenous bolus; assay type: in vivo
Method: A bolus of ^14C-CFTRinh-172 (2 μCi) was administered intravenously over 1 min in mice (male CD1 mice, 30-35 grams) by tail vein. Mice were sacrificed at 5, 30, 120 and 240 min. Organs were removed, weighed and homogenized in distilled water (10-50 vol %). Radioactivity was determined by scintillation counting of the homogenates (25-50 μL) and expressed as total ^14C-radioactivity per organ (or per gram tissue for skeletal muscle). At the same time blood, urine and bile (from gallbladder or duodenum) were collected and ^14C-radioactivity was measured and expressed per mL of fluid. Elimination studies were done by collections of urine and stool over the first 24 hr after ^14C-CFTRinh-172 administration. Tissue distribution studies were also done on rats prepared as for pharmacokinetic studies.

[4] = system: phosphatase activity; test: Phosphatase assay; assay type: cell-based; settings: 5 μM
[5] = Caco-2 permeability assay; assay type: in vitro ADME; settings: human, pH 7.3, Caco-2 monolayers, read-out: permeability coefficient (Papp)
Method: Caco-2 cells were cultured on porous inserts to give monolayer resistances of […]. For transport studies culture medium was replaced with an equal volume of Hank's buffered salt solution (HBSS) containing 15 mM glucose and 25 mM HEPES (pH 7.3).

[6] = biological target: T2, CFTR Cl^− channel (Rattus norvegicus, UniProt P34158); test: Short-circuit current in isolated rat colonic mucosa; settings: 5 μM to the mucosal solution alone, after amiloride and forskolin 20 μM
T2 construct: from tissue; host or cells: rat colon mucosa

[7] = biological target: CFTR (Homo sapiens, UniProt P13569)
[8] = Pharmacokinetic and oral bioavailability studies in mice; assay type: in vivo
Method: For comparison other mice were given ^14C-CFTRinh-172 (2 μCi) intravenously by tail vein infusion. Blood was collected from the tail vein at specified times for measurement of plasma ^14C radioactivity. At 6 hours mice were killed by pentobarbital overdose and organs were removed for measurement of radioactivity in homogenates.

[9] = pKa by spectrophotometric pH titration; assay type: physicochemical
[10] = system: intestinal fluid absorption; test: Fluid absorption in mouse closed intestinal loops; assay type: in vivo, mice; settings: 20 μg intraperitoneal, measured at 30 min
Method: FIG. 10 is a set of graphs providing the results of characterization of the mouse closed-intestinal loop model. Panel A (FIG. 10A): Intestinal loops were injected with 200 μL buffer and loop weight measured at indicated times (mean±SEM, 4 mice per time point). […] Inset (top) Chemical structure of CFTRinh-172. Panel B (FIG. 10B): Time course of cholera toxin-induced fluid secretion in mouse closed-loop model. […] Data for injected loops (1 μg cholera toxin/loop) as mean±SEM (4-6 mice).
First, the kinetics of intestinal loop fluid absorption and secretion were determined to characterize the mouse model. To study absorption, loop fluid content was measured at specified times after injection of 200 μL of PBS into individual loops. […] To study secretion, intestinal loops were injected with cholera toxin (1 μg in 0.1 mL PBS).

[11] = system: cholera toxin-induced intestinal fluid secretion; set-up: species or system mice; settings: mouse, in vivo, po
[12] = Pharmacokinetic analysis in rats after intravenous bolus; assay type: in vivo
Method: A bolus of ^14C-CFTRinh-172 (50 μCi) in PBS containing 3% DMSO (titrated to pH 7.4 using NaOH) was administered intravenously in rats over 1 min (male Sprague-Dawley rats, 360-420 grams) by an indwelling jugular catheter. Blood was collected from the catheter at specified times. ^14C-Radioactivity was determined in plasma (isolated by centrifugation of whole blood at 14,000 g for 10 min) by scintillation counting (Scintiverse SE, Fisher, Calif.) using a LS-6500 Multi-Purpose Scintillation Counter (Beckman). Pharmacokinetic analysis was done using WinNonLin software (Pharsight). Rats were sacrificed by pentobarbital overdose after collection of the final blood/tissue samples. All animal procedures were approved by the UCSF Committee on Animal Research.

[13] = system: FRT cells; test: Cell toxicity by dihydrorhodamine method; assay type: cell-based, rat; settings: dihydrorhodamine assay, after 24 hours
[14] = biological target: T3, CFTR (Mus musculus, UniProt P26361); test: Short-circuit current in mouse ileum
T3 construct: from tissue; host or cells: mouse ileum (wildtype CD1 mice)

[15] = rat, i.v. bolus, 2-compartment model

T1 sequence (P13569 whole entry): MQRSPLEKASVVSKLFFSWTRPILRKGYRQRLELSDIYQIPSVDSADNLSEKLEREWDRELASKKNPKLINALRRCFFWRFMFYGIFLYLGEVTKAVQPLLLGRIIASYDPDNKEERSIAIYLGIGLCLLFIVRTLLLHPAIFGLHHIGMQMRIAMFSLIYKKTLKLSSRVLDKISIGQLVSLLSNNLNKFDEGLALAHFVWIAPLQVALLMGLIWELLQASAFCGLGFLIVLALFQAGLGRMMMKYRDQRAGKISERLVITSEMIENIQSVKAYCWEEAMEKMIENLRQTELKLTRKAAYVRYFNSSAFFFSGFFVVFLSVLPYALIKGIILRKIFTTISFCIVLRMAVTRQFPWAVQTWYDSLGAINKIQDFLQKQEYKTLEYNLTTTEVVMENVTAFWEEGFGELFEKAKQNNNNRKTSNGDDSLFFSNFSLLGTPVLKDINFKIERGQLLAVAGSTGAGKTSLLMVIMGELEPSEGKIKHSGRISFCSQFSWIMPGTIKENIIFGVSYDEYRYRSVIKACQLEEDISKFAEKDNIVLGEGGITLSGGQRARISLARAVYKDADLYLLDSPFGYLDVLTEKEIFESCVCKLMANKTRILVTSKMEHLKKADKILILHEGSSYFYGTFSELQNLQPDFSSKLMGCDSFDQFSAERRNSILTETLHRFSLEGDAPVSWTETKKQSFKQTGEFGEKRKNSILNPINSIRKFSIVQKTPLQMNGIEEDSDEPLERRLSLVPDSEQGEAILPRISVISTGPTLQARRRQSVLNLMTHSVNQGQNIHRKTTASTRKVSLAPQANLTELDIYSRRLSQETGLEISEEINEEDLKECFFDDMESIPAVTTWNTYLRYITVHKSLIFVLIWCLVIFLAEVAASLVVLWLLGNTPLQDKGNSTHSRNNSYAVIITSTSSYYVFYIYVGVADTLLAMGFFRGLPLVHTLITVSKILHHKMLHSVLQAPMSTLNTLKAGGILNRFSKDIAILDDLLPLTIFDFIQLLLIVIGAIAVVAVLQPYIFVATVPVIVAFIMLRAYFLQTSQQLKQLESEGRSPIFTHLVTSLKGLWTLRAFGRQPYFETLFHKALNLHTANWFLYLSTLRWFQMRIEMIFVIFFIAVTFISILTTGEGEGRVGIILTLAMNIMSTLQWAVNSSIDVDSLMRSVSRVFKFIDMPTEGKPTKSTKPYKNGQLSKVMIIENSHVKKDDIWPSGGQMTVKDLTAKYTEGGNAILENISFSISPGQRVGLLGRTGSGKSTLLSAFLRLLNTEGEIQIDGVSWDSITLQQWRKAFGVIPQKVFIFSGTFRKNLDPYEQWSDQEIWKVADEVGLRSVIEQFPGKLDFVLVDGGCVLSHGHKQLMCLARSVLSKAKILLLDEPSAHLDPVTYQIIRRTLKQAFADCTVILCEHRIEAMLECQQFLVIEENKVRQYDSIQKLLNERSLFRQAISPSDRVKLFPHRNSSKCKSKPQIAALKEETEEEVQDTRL
T3 sequence (P26361 whole entry): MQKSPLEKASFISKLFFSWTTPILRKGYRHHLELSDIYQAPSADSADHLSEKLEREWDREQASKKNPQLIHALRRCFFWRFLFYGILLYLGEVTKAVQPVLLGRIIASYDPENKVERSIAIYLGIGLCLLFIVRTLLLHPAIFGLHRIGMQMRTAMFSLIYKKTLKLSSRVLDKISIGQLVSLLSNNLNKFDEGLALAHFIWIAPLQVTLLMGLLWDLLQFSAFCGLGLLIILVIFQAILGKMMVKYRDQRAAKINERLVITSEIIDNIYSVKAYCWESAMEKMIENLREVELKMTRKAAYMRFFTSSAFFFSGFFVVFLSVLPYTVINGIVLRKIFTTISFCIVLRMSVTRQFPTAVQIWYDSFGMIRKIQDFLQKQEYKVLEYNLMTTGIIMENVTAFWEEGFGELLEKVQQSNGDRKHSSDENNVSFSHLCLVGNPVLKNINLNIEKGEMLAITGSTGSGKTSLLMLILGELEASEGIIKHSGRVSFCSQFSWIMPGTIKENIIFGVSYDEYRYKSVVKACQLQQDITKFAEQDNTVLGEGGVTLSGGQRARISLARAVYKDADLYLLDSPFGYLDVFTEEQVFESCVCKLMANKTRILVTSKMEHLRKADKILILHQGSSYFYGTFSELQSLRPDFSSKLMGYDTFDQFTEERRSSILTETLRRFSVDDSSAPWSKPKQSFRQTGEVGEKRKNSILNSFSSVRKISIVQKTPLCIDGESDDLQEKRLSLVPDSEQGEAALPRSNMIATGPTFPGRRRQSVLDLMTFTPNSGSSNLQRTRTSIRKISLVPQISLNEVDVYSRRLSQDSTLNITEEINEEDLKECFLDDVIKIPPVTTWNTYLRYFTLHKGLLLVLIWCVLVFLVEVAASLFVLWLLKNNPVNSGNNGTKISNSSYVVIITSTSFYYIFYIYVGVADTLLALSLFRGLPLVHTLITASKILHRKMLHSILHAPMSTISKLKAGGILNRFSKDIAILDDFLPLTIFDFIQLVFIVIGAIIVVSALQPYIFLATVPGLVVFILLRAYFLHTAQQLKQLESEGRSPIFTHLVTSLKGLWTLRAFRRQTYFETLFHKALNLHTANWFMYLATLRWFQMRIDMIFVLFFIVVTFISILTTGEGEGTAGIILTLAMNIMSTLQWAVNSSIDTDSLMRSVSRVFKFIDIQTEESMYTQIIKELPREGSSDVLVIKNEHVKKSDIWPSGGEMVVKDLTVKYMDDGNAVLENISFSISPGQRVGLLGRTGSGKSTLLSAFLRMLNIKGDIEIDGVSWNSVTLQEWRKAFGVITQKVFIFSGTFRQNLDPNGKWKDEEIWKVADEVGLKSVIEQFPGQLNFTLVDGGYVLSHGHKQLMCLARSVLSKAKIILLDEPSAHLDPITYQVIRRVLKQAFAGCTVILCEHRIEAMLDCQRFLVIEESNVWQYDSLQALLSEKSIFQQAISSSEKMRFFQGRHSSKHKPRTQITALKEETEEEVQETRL
CFTR (Homo sapiens, UniProt P13569), sequence (P13569 whole entry): as the sequence (P13569 whole entry) above
T2 sequence (P34158 whole entry): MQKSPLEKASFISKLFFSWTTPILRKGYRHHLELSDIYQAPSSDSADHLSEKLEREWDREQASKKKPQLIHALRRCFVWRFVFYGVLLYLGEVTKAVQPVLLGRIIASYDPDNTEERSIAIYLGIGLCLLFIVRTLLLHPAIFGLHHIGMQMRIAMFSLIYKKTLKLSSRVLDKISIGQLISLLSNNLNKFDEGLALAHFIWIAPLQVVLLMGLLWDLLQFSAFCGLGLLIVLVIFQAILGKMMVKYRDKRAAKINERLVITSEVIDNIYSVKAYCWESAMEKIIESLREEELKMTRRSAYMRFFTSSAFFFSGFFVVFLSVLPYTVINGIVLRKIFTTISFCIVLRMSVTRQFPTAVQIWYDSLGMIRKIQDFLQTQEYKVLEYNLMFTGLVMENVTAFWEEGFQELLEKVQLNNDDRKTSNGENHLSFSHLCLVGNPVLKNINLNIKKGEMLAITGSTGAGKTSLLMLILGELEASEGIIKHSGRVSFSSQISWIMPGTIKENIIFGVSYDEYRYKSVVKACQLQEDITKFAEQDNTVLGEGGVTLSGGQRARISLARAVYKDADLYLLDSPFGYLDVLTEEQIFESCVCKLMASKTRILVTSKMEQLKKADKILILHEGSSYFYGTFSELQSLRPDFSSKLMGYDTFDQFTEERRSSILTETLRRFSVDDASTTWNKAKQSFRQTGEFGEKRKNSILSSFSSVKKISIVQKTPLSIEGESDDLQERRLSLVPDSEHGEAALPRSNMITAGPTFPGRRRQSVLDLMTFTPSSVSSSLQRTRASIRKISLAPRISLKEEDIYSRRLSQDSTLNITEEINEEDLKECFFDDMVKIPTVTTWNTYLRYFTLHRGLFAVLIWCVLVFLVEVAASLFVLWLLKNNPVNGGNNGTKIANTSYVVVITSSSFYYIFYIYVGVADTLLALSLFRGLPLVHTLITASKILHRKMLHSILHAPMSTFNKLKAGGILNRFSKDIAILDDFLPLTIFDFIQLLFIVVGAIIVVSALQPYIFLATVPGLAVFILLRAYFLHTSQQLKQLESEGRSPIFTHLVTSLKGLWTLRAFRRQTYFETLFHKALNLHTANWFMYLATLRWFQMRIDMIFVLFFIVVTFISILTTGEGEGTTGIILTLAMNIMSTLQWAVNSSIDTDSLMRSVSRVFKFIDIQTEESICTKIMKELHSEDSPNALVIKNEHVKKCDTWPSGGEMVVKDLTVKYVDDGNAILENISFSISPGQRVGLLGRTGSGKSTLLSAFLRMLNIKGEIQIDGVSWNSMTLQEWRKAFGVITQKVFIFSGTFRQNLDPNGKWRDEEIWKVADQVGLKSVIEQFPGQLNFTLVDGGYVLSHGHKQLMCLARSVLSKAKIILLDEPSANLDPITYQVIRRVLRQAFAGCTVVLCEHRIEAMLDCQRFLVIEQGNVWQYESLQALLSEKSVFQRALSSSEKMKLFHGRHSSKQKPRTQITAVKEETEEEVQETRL

O=C(O)c1ccc(/C=C2\SC(=S)N(c3cccc(C(F)(F)F)c3)C2=O)cc1 [CFTRinh-172, 3-[(3-trifluoromethyl)phenyl]-5-[(4-carboxyphenyl)methylene]-2-thioxo-4-thiazolidinone]
inhibition of short-circuit current ([1]; added from the basolateral side): inhibited short-circuit current | inhibition of short-circuit current ([1]; apical side, amiloride, after CPT-cAMP activation): inhibited short-circuit current strongly | inhibition of CFTR activation by other agonists ([2]; 5 μM inhibitor, genistein, CPT-cAMP, CPX, 8-MPO, UCCF-029, UCCF-853 (all 50 μM)): effectively inhibited | t1/2 of inhibition ([2]; after addition of 2 μM): 4 min | time to complete inhibition ([2]; after addition of 2 μM): ~10 min | t1/2 of inhibition reversal after washout ([2]; washout of 1 μM): ~5 min | ratio of ^14C radioactivity in urine-to-blood ([3]; mice): 5-7 | average urine radioactivity ([3]; mice, first 2 hours after infusion): 4.2±1.2×10^5 cpm/mL | ^14C radioactivity in brain, heart, skeletal muscle or testes ([3]; mice, i.v. bolus): Little radioactivity | organ distribution of ^14C radioactivity ([3]; mice, later times (30-240 min)): accumulated in the intestine | excreted radioactivity found in the urine ([3]; mice, urine and stool over first 24 hr): 93±3% | organ distribution of ^14C radioactivity ([3]; mice, within 5 min after i.v. infusion): primarily in liver and kidney | concentration of ^14C radioactivity in bile vs. blood ([3]; mouse, in vivo): ~9 fold | accumulation in other vital organs including heart, lung, skeletal muscle and testes ([3]; rodents): little CFTRinh-172 accumulation | blood-brain barrier penetration ([3]; rodents): did not significantly cross the blood-brain barrier | effect on phosphatase activity [4]: did not affect | Papp A→B at 25 μM [5]: 16 ×10⁻⁶ cm/s | reduction of short-circuit current [6]: > 80% | effect on membrane current ([7]; 2 μM extracellular perfusion, after 5 μM forskolin): rapid reduction in current at all membrane potentials | inhibition at 0.2 µM ([7]; FRT, read-out: inhibition of membrane current): ~50% | organ distribution ([8]; 6 hr after oral and intravenous administration): accumulation in the gastrointestinal tract as well as the liver and kidney | oral bioavailability ([8]; TPGS preparation, oral vs. intravenous tissue/serum content at 4-6 hr): 15-20% | time over which high initial serum concentrations decreased (tissue redistribution) ([8]; mice, intravenous): ~30 min | time of peak serum radioactivity ([8]; mice, oral administration in TPGS): 60 to 90 min | concentration of ^14C radioactivity in bile vs. serum ([8]; mouse, in vivo): ~10 fold | radioactivity excreted in the stool ([8]; over 24 hr): < 10 % of total excreted radioactivity | fraction present as the unionized acid ([9]; physiological pH): ~1% | pKa ([9]; spectrophotometric pH titration): 5.5 | rate of fluid absorption [10]: did not alter the rate of fluid absorption | intestinal fluid accumulation (ratio of intestinal weight before vs. after luminal fluid removal) [11]: remarkably reduced intestinal fluid accumulation | detection in plasma ([12]; 72 hr after administration): No ^14C-labeled CFTRinh-172 was detected | detection in liver or kidney homogenates ([12]; 14 days after administration): No ^14C-labeled CFTRinh-172 was detected | area under curve (AUC) [12, 15]: 3800 ng·h/mL | clearance [12, 15]: 99 mL/h | elimination half-time [12, 15]: 10.3 h | maximum serum concentration [12, 15]: 3.2 µg/mL | redistribution half-time [12, 15]: 0.14 h | volume of distribution [12, 15]: 1.2 L | concentration non-toxic to FRT cells [13]: up to 100 μM | IC50 ([14]; forskolin (cAMP-dependent chloride secretion), read-out: concentration for fifty percent inhibition of short-circuit current): ~5 µM | IC50 ([14]; intact intestine, read-out: apparent potency for inhibition of intestinal short-circuit current): 2 to 5 µM
